From US20250163002A1, “FUSED QUINONOXIME IMIDAZOLE, ONIUM DERIVATIVES THEREOF, PREPARATION AND USE THEREOF” (SHANGHAI JIAO TONG UNIVERSITY, priority 2022, published 2025)

How the values were obtained:
A549 = assay: In vitro inhibition test for cancer cell proliferation (MTT), A549; format: cell-based; settings: 24 h or 48 h after addition, unit inferred
HeLa = assay: In vitro inhibition test for cancer cell proliferation (MTT), HeLa; format: cell-based; settings: 24 h or 48 h after addition, unit inferred
MCF-7 = assay: In vitro inhibition test for cancer cell proliferation (MTT), MCF-7; format: cell-based; settings: 24 h or 48 h after addition, unit inferred
L929 = assay: In vitro cell proliferation inhibition test (MTT), L929; format: cell-based; settings: 24 h or 48 h after addition, unit inferred
Adenovirus = assay: Antiviral activity, plaque test in 293A cells; format: cell-based; settings: adenovirus in 293A cells; for non-CPE blank plaques observed: observation by day
Description: Experimental method: 4.59 mg of the compound 125 were weighed and put to a 15 mL centrifugal tube with the addition of 10 mL of sterile water, and dissolved via vortex oscillation until there was no obvious yellow particle, then subpackaged and stored at −20° C., 200 μL/piece (concentration: 1 mM); 2.79 mg Cidofovir (molecular weight: 279) were weighed and added to the 15 mL centrifugal tube, dissolved with the addition of 10 mL sterile water, then subpackaged and stored at −20° C., 200 μL/piece (concentration: 1 mM).
Plaque test: • 1. 293A cells were paved into a 24-well plate with 150,000 cells per well, and cultured at 37° C. for 12-24 h, then used for test after growing to 90%. • 2. 2% low-melting point agarose gel was melted and put to a 56° C. water bath kettle for further use. • 3. Adenovirus having a titer of 10^9 TCID^50/mL was diluted by 10^5 folds; medium in the 24-well plate was removed, and 200 μL of adenoviral diluent was added per well and incubated in a 37° C. 5% CO2 incubator, shaken once every 30 min, and incubated for 1 h in total. • 4. The drug compound 125 to be tested and Cidofovir were double diluted with 2×MEM (16 μL compound 125 was added to 8 mL of 2×MEM, oscillated and mixed well, then 4 mL mixed solution was taken and added to fresh 4 mL of 2×MEM and mixed well, and 5 dilutions were conducted, being 2 μM, 1 μM, 500 nM, 250 nM, and 125 nM, respectively; the maximum concentration of the compound 125 was 1 μM. Similarly, 400 μL Cidofovir was added to 7.6 mL of 2×MEM, oscillated and mixed well, then 4 mL mixed solution was taken and added to fresh 4 mL of 2×MEM and mixed well, and 5 dilutions were conducted, being 50 μM, 25 μM, 12.5 μM, 6.25 μM, and 3.125 μM, respectively); the diluted solution was put at 37° C. for further use. • 4. The viral solution was discarded, and agarose gel preheated at 56° C. was added to 2×MEM by the same volume and mixed well, and then 2 mL of mixed solution was added per well, and incubated at room temperature for 30 min (gel). • 5. […]

[1] = system: non-small cell lung cancer cell H460; assay: In vitro proliferation inhibition, H460; format: cell-based; settings: unit inferred
Description: (§1) Test method: pancreatic cancer cells CFPAC-1 were cultured in a Dalbeco-improved Eagle medium with the addition of 10% FBS and 5% double-antibody. CFPAC-1 cancer cells were inoculated into a 96-well plate for incubation for 24 h; in the following day, test compounds having various concentrations of (100, 20, 10, 1, 0.1, 0.01, and 0.001 μM) and positive control agents were added per well; corresponding volume of fresh medium was added to blank control. After addition for 24 h or 48 h, cell proliferation was evaluated by chromogenic reaction of MTT formazan.
(§2) In addition, compounds (I), (II), (III), and (IV) of the present invention have good inhibition activity against the proliferation of other cancer cells, including non-small cell lung cancer cell (H460, H1299), liver tumor cell (HepG2), rectal cancer cell (HT29), leukemia cell (CCRF-CEM), prostate cancer cell (PC-3), ovarian carcinoma cell (SKOV-3), melanoma cell (A375), myeloma cell (RPMI-8226), esophageal carcinoma cell (TE-1), pancreatic cancer cell (CFPAC-1, PANC-1, SW1990, ASPC-1, and BXPC-3), bladder cancer cell (5637), and gastric cancer cell (KATO-III).

[2] = system: non-small cell lung cancer cell H1299; assay: In vitro proliferation inhibition, H1299; format: cell-based; settings: unit inferred
Description: as §1, §2

liver tumor cell HepG2 = assay: In vitro proliferation inhibition, HepG2; format: cell-based; settings: unit inferred
Description: as §1, §2

rectal cancer cell HT29 = assay: In vitro proliferation inhibition, HT29; format: cell-based; settings: unit inferred
Description: as §1, §2

leukemia cell CCRF-CEM = assay: In vitro proliferation inhibition, CCRF-CEM; format: cell-based; settings: unit inferred
Description: as §1, §2

[3] = system: prostate cancer cell PC-3; assay: In vitro proliferation inhibition, PC-3; format: cell-based; settings: unit inferred
Description: as §1, §2

[4] = system: ovarian carcinoma cell SKOV-3; assay: In vitro proliferation inhibition, SKOV-3; format: cell-based; settings: unit inferred
Description: as §1, §2

melanoma cell A375 = assay: In vitro proliferation inhibition, A375; format: cell-based; settings: unit inferred
Description: as §1, §2

myeloma cell RPMI-8226 = assay: In vitro proliferation inhibition, RPMI-8226; format: cell-based; settings: unit inferred
Description: as §1, §2

[5] = system: esophageal carcinoma cell TE-1; assay: In vitro proliferation inhibition, TE-1; format: cell-based; settings: unit inferred
Description: as §1, §2

[6] = system: pancreatic cancer cells CFPAC-1; assay: In vitro proliferation inhibition, CFPAC-1; format: cell-based; settings: unit inferred
Description: as §1, §2

[7] = system: pancreatic cancer cell PANC-1; assay: In vitro proliferation inhibition, PANC-1; format: cell-based; settings: unit inferred
Description: as §1, §2

[8] = system: pancreatic cancer cell SW1990; assay: In vitro proliferation inhibition, SW1990; format: cell-based; settings: unit inferred
Description: as §1, §2

[9] = system: pancreatic cancer cell ASPC-1; assay: In vitro proliferation inhibition, ASPC-1; format: cell-based; settings: unit inferred
Description: as §1, §2

[10] = system: pancreatic cancer cell BXPC-3; assay: In vitro proliferation inhibition, BXPC-3; format: cell-based; settings: unit inferred
Description: as §1, §2

bladder cancer cell 5637 = assay: In vitro proliferation inhibition, 5637; format: cell-based; settings: unit inferred
Description: as §1, §2

[11] = system: gastric cancer cell KATO-III; assay: In vitro proliferation inhibition, KATO-III; format: cell-based; settings: unit inferred
Description: as §1, §2

[12] = system: CFPAC-1 pancreatic cancer cells; assay: In vivo inhibition test of cancer cell proliferation, CFPAC-1 transplant; design: species or system Balb/c naked mouse; settings: 7 mg/kg, once every other three days, 7 times; gross tumor volume
Description: Test method: 3×10^7 CFPAC-1 pancreatic cancer cells were transplanted to subcutaneous tissues of armpit of a Balb/c naked mouse; administration was conducted when the tumor grew to 50-100 mm^3, 100-200 mm^3, and greater than 200 mm^3; the mouse was administered once every other three days, 7 times in total, and 7 mg/kg each time. Normal saline was injected in the control group. Tumor length and diameter were measured by calipers and weight of the moue was weighed until the next day of the final administration. Gross tumor volume was calculated by the following equation:
gross tumor volume (mm^3)=½×[short diameter (mm)]^2×long diameter (mm)

CC(C)ON=C1c2ccccc2C(=O)c2c1[n+](C)cn2C.[I-] [Compound 127, (E) and (Z)-4-(isopropoxyimino)-1,3-dimethyl-9-oxo-4,9-dihydro-1H-naphthol[2,3-d]imidazole-3-iodide]
IC50 (A549): 90 nM
IC50 (HeLa): 25100 nM
IC50 (MCF-7): 7900 nM
IC50 (L929): 29600 nM
non-CPE blank plaques observed (Adenovirus): 5 days later, non-CPE blank plaque also appeared in the low concentration group

Cn1c[n+](C)c2c1C(=O)c1ccccc1C2=NOCc1ccccc1.[I-] [Compound 125, (E) and (Z)-4-((benzyloxy)imino)-1,3-dimethyl-9-oxo-4,9-dihydro-1H-naphthol[2,3-d]imidazole-3-iodide]
IC50 (A549): 5 nM
IC50 (HeLa): 5300 nM
IC50 (MCF-7): 4500 nM
IC50 (L929): 45300 nM
IC50 [1]: 160 nM
IC50 [2]: 260 nM
IC50 (liver tumor cell HepG2): 9 nM
IC50 (rectal cancer cell HT29): 5400 nM
IC50 (leukemia cell CCRF-CEM): 90 nM
IC50 [3]: 26500 nM
IC50 [4]: 90 nM
IC50 (melanoma cell A375): 2210 nM
IC50 (myeloma cell RPMI-8226): 89000 nM
IC50 [5]: 60 nM
IC50 [6]: 6 nM
IC50 [7]: 970 nM
IC50 [8]: 9 nM
IC50 [9]: 5 nM
IC50 [10]: 3 nM
IC50 (bladder cancer cell 5637): 40 nM
IC50 [11]: 9 nM
proliferation inhibition activity / inhibition ratio [12]: 100%
effect on viral replication (Adenovirus): inhibiting effect on viral replication

Nc1ccn(C[C@@H](CO)OCP(=O)(O)O)c(=O)n1 [Cidofovir, reference compound]
non-CPE blank plaques observed (Adenovirus): 4 days later, lots of blank plaques formed by non-CPE could be observed
